Test results: ChEMBL document CHEMBL1201862, “PubChem BioAssay data set” (2004)
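Following 48 hours of exposure in 96-well plates, responses at five concentrations were used to interpolate endpoints linearly. At the GI50, growth is halved.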 Active and inactive are the calls of the source. No stated cut-off is given here; in the data, active = GI50 up to about 1.1 µM and inactive = higher.

Columns and labels:
Assay in all cases: NCI anticancer screen, dose series, 48 h
[1] = test system: UACC-62
[2] = test system: NCI-H23
[3] = test system: SW-620
[4] = test system: OVCAR-8
[5] = test system: SNB-75
[6] = test system: A498
[7] = test system: OVCAR-4
[8] = test system: K562
[9] = test system: HCT-116
[10] = test system: MDA-N
[11] = test system: SF-295
[12] = test system: HCC 2998
[13] = test system: M14
[14] = test system: SK-MEL-5
[15] = test system: HOP-92
[16] = test system: U-251
[17] = test system: UACC-257
[18] = test system: CCRF-CEM
[19] = test system: SR

Structure (SMILES)	GI50 [1]	GI50 [2]	GI50 [3]	GI50 [4]	GI50 [5]	GI50 [6]	GI50 [7]	GI50 [8]	GI50 [9]	GI50 [10]	GI50 [11]	GI50 [12]	GI50 [13]	GI50 [14]	GI50 [15]	GI50 [16]	GI50 [17]	GI50 [18]	GI50 [19]
O=[N+]([O-])c1cccc(/N=C2\c3ccccc3CN2c2cccc([N+](=O)[O-])c2)c1	> 100 µM (inactive)	> 100 µM (inactive)	> 100 µM (inactive)	> 100 µM (inactive)	24.8 µM (inactive)	> 100 µM (inactive)	65.9 µM (inactive)	> 100 µM (inactive)	> 100 µM (inactive)	> 100 µM (inactive)	> 100 µM (inactive)	> 100 µM (inactive)	> 100 µM (inactive)	> 100 µM (inactive)	19.4 µM (inactive)	> 100 µM (inactive)	> 100 µM (inactive)		
CC1(C)OC[C@@]2([C@@H]3CC[C@@H](C3)C2(C)C)N1O	> 100 µM (inactive)	> 100 µM (inactive)	> 100 µM (inactive)	> 100 µM (inactive)	> 100 µM (inactive)	> 100 µM (inactive)	> 100 µM (inactive)	> 100 µM (inactive)	> 100 µM (inactive)	> 100 µM (inactive)	> 100 µM (inactive)		> 100 µM (inactive)	> 100 µM (inactive)	27.4 µM (inactive)	88.9 µM (inactive)	> 100 µM (inactive)	> 100 µM (inactive)	
CCNCC(=O)Nc1ccc2c(c1)C(=O)c1ccc(NC(=O)CNCC)cc1C2=O	3.75 µM (inactive)	3.43 µM (inactive)	2.99 µM (inactive)	2.18 µM (inactive)	1.41 µM (inactive)	2.62 µM (inactive)	0.514 µM (active)	1.78 µM (inactive)	1.44 µM (inactive)	4.59 µM (inactive)	3.33 µM (inactive)	1.7 µM (inactive)	3.5 µM (inactive)	36.4 µM (inactive)	3.38 µM (inactive)	1.72 µM (inactive)	5.98 µM (inactive)	2.9 µM (inactive)	
O=C(O)CCc1ccc2c(c1)C(=O)CC2	> 100 µM (inactive)	> 100 µM (inactive)	> 100 µM (inactive)	> 100 µM (inactive)		> 100 µM (inactive)	> 100 µM (inactive)	> 100 µM (inactive)	> 100 µM (inactive)	> 100 µM (inactive)	> 100 µM (inactive)	> 100 µM (inactive)	> 100 µM (inactive)	> 100 µM (inactive)		> 100 µM (inactive)	> 100 µM (inactive)	> 100 µM (inactive)	> 100 µM (inactive)
CSc1c(C#N)c(S)n(-c2ccc(Cl)cc2)c(=O)c1C#N	51.2 µM (inactive)	39.6 µM (inactive)	> 100 µM (inactive)	74.1 µM (inactive)	> 100 µM (inactive)	> 100 µM (inactive)	46.1 µM (inactive)	63 µM (inactive)	45.4 µM (inactive)	> 100 µM (inactive)		> 100 µM (inactive)	> 100 µM (inactive)	83.9 µM (inactive)		> 100 µM (inactive)	> 100 µM (inactive)	32.5 µM (inactive)	33 µM (inactive)
COc1ccc2oc(=O)c(-c3csc(-c4ccccc4)n3)cc2c1	34.5 µM (inactive)		57.7 µM (inactive)		37.3 µM (inactive)		31 µM (inactive)	> 100 µM (inactive)	35.6 µM (inactive)	> 100 µM (inactive)	22.8 µM (inactive)	95.7 µM (inactive)	> 100 µM (inactive)	45.2 µM (inactive)	24.3 µM (inactive)	21.9 µM (inactive)	> 100 µM (inactive)	> 100 µM (inactive)	> 100 µM (inactive)
CNc1ccc(OC)cc1S(=O)(=O)c1ccccc1[N+](=O)[O-]	> 100 µM (inactive)	> 100 µM (inactive)	> 100 µM (inactive)	> 100 µM (inactive)	> 100 µM (inactive)	47.4 µM (inactive)	> 100 µM (inactive)	43.2 µM (inactive)	> 100 µM (inactive)	> 100 µM (inactive)	> 100 µM (inactive)	> 100 µM (inactive)	> 100 µM (inactive)	51.3 µM (inactive)		> 100 µM (inactive)		26.7 µM (inactive)	> 100 µM (inactive)
C=C1[C@H]2O[C@H]2[C@@H](OC(C)=O)[C@@]2(C)[C@@H](OC(C)=O)C[C@@H](OC(=O)CCC)[C@@](C)(O)[C@@H]2[C@@H](OC(C)=O)[C@]2(O)[C@@H](C)C(=O)O[C@H]2[C@H]1Cl	> 100 µM (inactive)	> 100 µM (inactive)	> 100 µM (inactive)	> 100 µM (inactive)	> 100 µM (inactive)	> 100 µM (inactive)	> 100 µM (inactive)	> 100 µM (inactive)	> 100 µM (inactive)	> 100 µM (inactive)	> 100 µM (inactive)	> 100 µM (inactive)	> 100 µM (inactive)	> 100 µM (inactive)	> 100 µM (inactive)	> 100 µM (inactive)	> 100 µM (inactive)	> 10 µM (inactive)	
FC(F)(F)c1cnc(N/N=C(/c2ccccc2)c2ccccn2)c(Cl)c1	8.75 µM (inactive)	7.26 µM (inactive)	3.02 µM (inactive)	2.39 µM (inactive)	6.25 µM (inactive)		7.76 µM (inactive)	4.03 µM (inactive)	3.26 µM (inactive)	23.8 µM (inactive)	3.4 µM (inactive)	5.92 µM (inactive)	3.78 µM (inactive)	4.29 µM (inactive)	8.75 µM (inactive)	4.9 µM (inactive)	2.49 µM (inactive)	2.4 µM (inactive)	2.76 µM (inactive)
O=c1cc(-c2ccccc2)oc2c(-c3cc(Cl)cc4c(=O)cc(-c5ccccc5)oc34)cc(Cl)cc12	11.6 µM (inactive)	25 µM (inactive)	19.9 µM (inactive)	28.9 µM (inactive)	4.49 µM (inactive)	16.1 µM (inactive)	41.9 µM (inactive)	6.87 µM (inactive)		17.3 µM (inactive)	22.4 µM (inactive)	47.9 µM (inactive)	27.7 µM (inactive)	15.5 µM (inactive)		19 µM (inactive)		5.48 µM (inactive)	> 100 µM (inactive)
CCOC(=O)c1nc2ccccc2nc1Oc1ccc(F)cc1	> 100 µM (inactive)		> 100 µM (inactive)	> 100 µM (inactive)	11.4 µM (inactive)	> 100 µM (inactive)		> 100 µM (inactive)	> 100 µM (inactive)	> 100 µM (inactive)	70.6 µM (inactive)		> 100 µM (inactive)	> 100 µM (inactive)	2.64 µM (inactive)	69.2 µM (inactive)	> 100 µM (inactive)	> 100 µM (inactive)	
Cc1cn(C2CC(N=[N+]=[N-])C(CO)O2)c(=O)n(CCCCO)c1=O (configuration not stated)	> 100 µM (inactive)	> 100 µM (inactive)	> 100 µM (inactive)	> 100 µM (inactive)	88.3 µM (inactive)	> 100 µM (inactive)	> 100 µM (inactive)	> 100 µM (inactive)	> 100 µM (inactive)	> 100 µM (inactive)	> 100 µM (inactive)	> 100 µM (inactive)	> 100 µM (inactive)		> 100 µM (inactive)	> 100 µM (inactive)	> 100 µM (inactive)	> 100 µM (inactive)	
CN(/N=C/C=N/N(C)C1=NCCCCN1)C1=NCCCCN1	> 100 µM (inactive)	> 100 µM (inactive)	> 100 µM (inactive)	> 100 µM (inactive)	> 100 µM (inactive)		> 100 µM (inactive)	> 100 µM (inactive)	> 100 µM (inactive)	> 100 µM (inactive)	> 100 µM (inactive)	> 100 µM (inactive)	> 100 µM (inactive)	> 100 µM (inactive)		> 100 µM (inactive)	> 100 µM (inactive)	> 100 µM (inactive)	> 100 µM (inactive)
COc1ccc(/C=C/C(=O)/C=C/c2ccc(OC)cc2OC)c(OC)c1	5.6 µM (inactive)	10.2 µM (inactive)	5.32 µM (inactive)	11.6 µM (inactive)	14.9 µM (inactive)		12.3 µM (inactive)	2.79 µM (inactive)	4.34 µM (inactive)	2.22 µM (inactive)	24.7 µM (inactive)	3.23 µM (inactive)	7.14 µM (inactive)	3.77 µM (inactive)	18.6 µM (inactive)	4.67 µM (inactive)	1.39 µM (inactive)	2.92 µM (inactive)	3.64 µM (inactive)
COc1cc2c(cc1OCCCCCCCCCCN1C(=O)c3cccc4cccc(c34)C1=O)N=C[C@@H]1CCCN1C2=O	12.2 µM (inactive)	6.21 µM (inactive)	4.34 µM (inactive)	4.95 µM (inactive)	4.58 µM (inactive)		1.31 µM (inactive)	5.26 µM (inactive)	5.52 µM (inactive)	7.55 µM (inactive)	6.55 µM (inactive)	11.1 µM (inactive)	13.7 µM (inactive)	10.9 µM (inactive)		3.37 µM (inactive)	16.1 µM (inactive)	1.94 µM (inactive)	0.902 µM (active)
COC(=O)CCc1ccc2c(c1)CC1(Cc3ccccc3C1)C2	57.3 µM (inactive)	> 100 µM (inactive)		> 100 µM (inactive)	< 0.01 µM (active)	> 100 µM (inactive)	> 100 µM (inactive)	> 100 µM (inactive)	95.1 µM (inactive)	> 100 µM (inactive)	> 100 µM (inactive)	> 100 µM (inactive)	> 100 µM (inactive)	33.6 µM (inactive)	97.5 µM (inactive)	> 100 µM (inactive)	> 100 µM (inactive)	34.6 µM (inactive)	
